The target of series [1] is T1, hNCC(N149A) (Homo sapiens, UniProt P55017, N149A).
T1 construct: expressed in transfected cells
T1 sequence (P55017 1-1021 N149A): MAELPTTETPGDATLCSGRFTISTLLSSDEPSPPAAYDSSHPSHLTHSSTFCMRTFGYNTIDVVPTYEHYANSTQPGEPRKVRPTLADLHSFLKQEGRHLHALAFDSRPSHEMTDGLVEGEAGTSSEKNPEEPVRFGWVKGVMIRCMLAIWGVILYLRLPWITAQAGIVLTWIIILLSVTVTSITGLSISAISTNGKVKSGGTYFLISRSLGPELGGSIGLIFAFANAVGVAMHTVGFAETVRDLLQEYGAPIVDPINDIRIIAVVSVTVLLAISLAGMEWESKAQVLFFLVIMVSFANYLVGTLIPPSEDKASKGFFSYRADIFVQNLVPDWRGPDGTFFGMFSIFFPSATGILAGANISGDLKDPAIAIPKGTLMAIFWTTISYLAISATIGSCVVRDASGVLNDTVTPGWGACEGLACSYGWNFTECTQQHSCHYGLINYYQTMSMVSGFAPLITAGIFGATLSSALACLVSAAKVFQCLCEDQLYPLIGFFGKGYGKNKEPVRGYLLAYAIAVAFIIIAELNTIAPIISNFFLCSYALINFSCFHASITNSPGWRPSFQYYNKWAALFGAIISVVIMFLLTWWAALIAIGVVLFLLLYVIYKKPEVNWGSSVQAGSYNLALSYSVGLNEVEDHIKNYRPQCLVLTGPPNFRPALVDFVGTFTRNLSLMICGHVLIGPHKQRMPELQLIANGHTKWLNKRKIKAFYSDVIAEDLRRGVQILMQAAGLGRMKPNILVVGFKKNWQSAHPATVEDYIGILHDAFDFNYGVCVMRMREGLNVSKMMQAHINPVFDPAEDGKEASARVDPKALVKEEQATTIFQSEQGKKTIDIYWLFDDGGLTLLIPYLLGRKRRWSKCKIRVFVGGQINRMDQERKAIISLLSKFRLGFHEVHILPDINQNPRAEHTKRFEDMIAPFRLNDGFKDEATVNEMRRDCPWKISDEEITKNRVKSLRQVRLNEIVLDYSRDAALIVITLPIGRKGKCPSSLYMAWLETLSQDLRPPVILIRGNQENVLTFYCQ
Put plainly: 125I- uptake assay, hNCC(N149A) variant. In kind it is cell-based. The conditions noted are these: N149A substitution; for IC50: iodide uptake. As for the experimental part:
HEK293S cell lines, cultured in 293 Freestyle medium (Life Technologies; plus 10% fetal bovine serum), stably expressing hNCC and its variants were generated following published protocols. Cells were transfected using Lipofectamine 3000 (Invitrogen) with a pSBbi-RP-based plasmid containing hNCC or its variants and the SB100X vector. Puromycin (2 μg/mL; Gemini Bio-Products) was used for selection of stable cell lines.
To prepare for the uptake experiment, cells were plated at 0.5 × 10^6 cells/well in 24-well plates one day in advance. To activate NCC, cells were treated with a chloride-free hypotonic solution composed of 67.5 mM sodium-, 2.5 mM potassium-, 0.25 mM magnesium-, and 0.25 mM calcium-gluconate, as well as 7.5 mM HEPES pH 7.4 (buffered using Tris) at 37 °C for 10 min[72]. After the activation step, the experiments were carried out at room temperature. Ten minutes before the start of ^125I^− uptake, 70 μM Bumetanide (Thermo Scientific Chemicals) and 100 μM 4,4′-diisothiocyanatostilbene-2,2′-disulfonic acid (DIDS; Sigma) were added to suppress background iodide uptake activity. Indicated thiazide diuretics were also added to the indicated concentrations 10 min before the start of ^125I^− uptake. The original buffer was switched to an uptake buffer composed of 135 mM Na-gluconate, 5 mM K-gluconate, 1 mM Mg-gluconate, 1 mM Ca-gluconate, 70 μM bumetanide, 100 μM DIDS, 1 mM NaI, 0.25 μCi/ml Na^125I (American Radiolabeled Chemicals, Inc.), and 15 mM HEPES pH 7.4 (buffered using Tris), in the presence or absence of thiazide diuretics to initiate ^125I^− uptake. The ^125I^− uptake process lasted 1 h and was stopped by two rapid washes using ice-cold 110 mM MgCl2. Cells lysed using 1% sodium dodecyl sulfate (SDS) were analyzed by scintillation counting.
To calculate the fold change of the half-maximal inhibitory concentration (IC50) between hNCC(WT) and different hNCC variants, individual dose-response curves were normalized first using the smallest mean and the value of the lowest concentration as 0% and 100%, respectively. The normalized data were then fitted using the “EC50 shift” nonlinear regression in GraphPad Prism 10 with the shared EC50Control assigned to be the IC50 of hNCC(WT). The following constraints were used in the EC50 shift analysis. The EC50Control was set to be shared across all curves under analysis and constrained to be greater than 0. The EC50Ratio was constrained to be greater than 0. The bottom, top, and HillSlope were constrained to be 0, 100, and −1, respectively. For Fig. 1f, g and Supplementary Fig. 2d, GraphPad Prism 10 was used to perform curve fitting and IC50 calculation for normalized data using y = 100/(1 + (x/IC50)).

Details of series [2]: method as in PMID 354839. The note with it: chlorthalidone dose 2- to 4-fold over the currently recommended level; cited from earlier work.

In the case of `NS(=O)(=O)c1cc(C2(O)NC(=O)c3ccccc32)ccc1Cl` (centres unmarked) [chlorthalidone], in series [1], the “fold less sensitive than hNCC(WT)” value is given as approximately 95 fold and half-maximal inhibition (IC50) was put at 2200 nM. Besides, the “serum glucose and uric acid” value in series [2] was “elevated levels of serum glucose and uric acid”.
Regarding `CC1Cc2ccccc2N1NC(=O)c1ccc(Cl)c(S(N)(=O)=O)c1` (centres unmarked) [indapamide], in series [1], the “fold less sensitive than hNCC(WT)” value is “approximately 27 fold” and the IC50 (usually the midpoint of a concentration-inhibition curve) came to 340 nM.

The values are drawn from PMC12365235, “Molecular mechanisms of thiazide-like diuretics-mediated inhibition of the human Na-Cl cotransporter” (Nature Communications, 2025).
